Here are results for 22 compounds from patent publication US8912186B2, “Allosteric protein kinase modulators” (Universitaet des Saarlandes, priority 2008, dated 2014).

This assay addresses T1, PDK1 (Homo sapiens, UniProt O15530).
T1 construct: GST
T1 sequence (O15530 1-556): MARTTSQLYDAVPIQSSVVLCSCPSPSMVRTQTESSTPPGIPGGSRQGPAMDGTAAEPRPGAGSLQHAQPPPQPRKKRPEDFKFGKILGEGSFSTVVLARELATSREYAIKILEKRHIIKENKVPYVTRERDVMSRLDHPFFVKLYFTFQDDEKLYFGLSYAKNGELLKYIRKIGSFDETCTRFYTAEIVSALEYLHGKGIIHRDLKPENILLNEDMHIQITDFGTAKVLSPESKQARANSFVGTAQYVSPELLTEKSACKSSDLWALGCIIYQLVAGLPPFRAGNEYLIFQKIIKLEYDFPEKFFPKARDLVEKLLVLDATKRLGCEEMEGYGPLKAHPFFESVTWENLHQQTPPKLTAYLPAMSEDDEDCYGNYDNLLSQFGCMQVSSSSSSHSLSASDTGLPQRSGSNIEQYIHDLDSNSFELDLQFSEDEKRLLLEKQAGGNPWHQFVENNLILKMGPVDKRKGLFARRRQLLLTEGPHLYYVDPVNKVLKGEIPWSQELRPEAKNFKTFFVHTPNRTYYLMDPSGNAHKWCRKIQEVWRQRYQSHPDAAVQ
The assay can be described thus: cell-free kinase activity assay (ATPgamma[32P], T308tide substrate). The assay is classed as biochemical. The settings on record: n.e.: no effect; for AC50 / AC50 PDK1 (μM): concentration of the compound required to activate half maximally; for max. activation of PDK1 (fold): maximum activation achievable, compared to the basal activity of PDK1. The source says:
Principle of the cell-free kinase activity assay: In general, the activity of the compounds as protein kinase inhibitors or activators may be assayed in vitro (cell free assay is meant here), in vivo or in a cell line. In vitro assays include assays that determine inhibition or activation of either the phosphorylation activity or ATPase activity of the activated protein kinase. Alternate in vitro assays quantitate the ability of the inhibitor to bind to the protein kinase. Compound binding may be measured by radiolabelling the compound prior to binding, isolating the inhibitor or activator/protein kinase complex and determining the amount of radiolabel bound. Alternatively, inhibitor or activator binding may be determined by running a competition experiment where new compounds are incubated with the protein kinase bound to known radioligands. Newer methods comprise fluorescence polarisation assays and surface plasmon resonance dependent techniques. […] The activity and modulation of activity is measured using a standard ATPgamma[^32P] assay as described earlier. […] The concentration of T308tide is 1 mM and the amount of PDK1 used is 200 ng. Reactions are carried out at room temperature. Reaction is started by addition of ATP-Mg mix and stopped with phosphoric acid after 30 min. Stopped reactions were spotted on to phosphocellulose paper (P81, Whatman) and washed. After drying, the radioactivity associated to the band was quantified.

Broadly, the AC50 is the concentration giving half of the maximal activity seen. For `O=C(O)C=C(c1ccccc1)c1cc2cc(Cl)ccc2o1` (mixture of isomers) [PS 101, (E/Z)-3-(5-Chloro-2-benzofuranyl)-3-phenylacrylic acid], half-maximal activity (AC50) was put at 31.6 µM and the “max. activation of PDK1 (fold)” value turned out to be 3.2 fold.
The matching figures for `Cc1ccc2oc(C(=CC(=O)O)c3ccccc3)cc2c1` (mixture of isomers) [PS 103, (E/Z)-3-(5-Methyl-2-benzofuranyl)-3-phenylacrylic acid]: 41.3 µM and 3.1 fold.
The matching figures for `O=C(O)/C=C(\CCc1cccc(Cl)c1)c1ccccc1` [PS 88, (E)-5-(3-Chlorophenyl)-3-phenylpent-2-enoic acid]: over 100 µM and 2 fold.
The matching figures for `O=C(O)/C=C(\COc1ccc(Cl)cc1)c1ccccc1` [PS 95, (Z)-4-(4-Chlorophenoxy)-3-phenylbut-2-enoic acid]: over 60 µM and 2.7 fold.
For `O=C(O)/C=C(/COc1ccc(Cl)cc1)c1ccccc1` [PS 97, (E)-4-(4-Chlorophenoxy)-3-phenylbut-2-enoic acid], the AC50 amounted to 22.8 µM and the “max. activation of PDK1 (fold)” value is 3.0 fold.
`O=C(O)/C=C(\c1ccccc1)c1cc2cc(Cl)ccc2s1` [PS 119, (E)-3-(5-Chloro-2-benzothiophenyl)-3-phenylacrylic acid]: half-maximal activity (AC50) was put at 13.2 µM and the “max. activation of PDK1 (fold)” value came out at 3.1 fold.
The matching figures for `Cc1ccc2oc(C(CC(=O)O)c3ccccc3)cc2c1` (stereo not drawn) [PS 120, 3-(5-Methyl-2-benzofuranyl)-3-phenylpropanoic acid]: 29.1 µM and 2.7 fold.
The matching figures for `O=C(O)CC(c1ccccc1)c1cc2cc(Cl)ccc2o1` (stereo not drawn) [PS 124, 3-(5-Chloro-2-benzofuranyl)-3-phenylpropanoic acid]: 19 µM and 2.9 fold.
On to `CCc1ccc(CC/C(=C\C(=O)O)c2ccccc2)cc1` [PS 129, (E)-5-(4-Ethylphenyl)-3-phenylpent-2-enoic acid], for which the concentration at half-maximal activity (AC50) was over 100 µM and the “max. activation of PDK1 (fold)” value came out at 1.5 fold.
For the compound `CCc1ccc(CC/C(=C/C(=O)O)c2ccccc2)cc1` [PS 130, (Z)-5-(4-Ethylphenyl)-3-phenylpent-2-enoic acid], the AC50 is over 30 µM and the “max. activation of PDK1 (fold)” value was determined as 1.4 fold.
The matching figures for `O=C(O)/C=C(\CCc1ccc(Cl)c(Cl)c1)c1ccccc1` [PS 131, (E)-5-(3,4-Dichlorophenyl)-3-phenylpent-2-enoic acid]: over 100 µM and 2 fold.
As to `O=C(O)/C=C(\CCc1ccc(Cl)cc1Cl)c1ccccc1` [PS 135, (E)-5-(2,4-Dichlorophenyl)-3-phenylpent-2-enoic acid], the “AC50 PDK1 (μM)” value is listed as “n.e” and the “max. activation of PDK1 (fold)” value is recorded as “n.e”.
Consider `O=C(O)/C=C(\CCc1ccc(F)cc1)c1ccccc1` [PS 136, (E)-5-(4-Fluorophenyl)-3-phenylpent-2-enoic acid], for which the concentration at half-maximal activity (AC50) is over 100 µM and the “max. activation of PDK1 (fold)” value was found to be 1.3 fold.
The matching figures for `O=C(O)/C=C(\CCc1ccc(Br)cc1)c1ccccc1` [PS 137, (E)-5-(4-Bromophenyl)-3-phenylpent-2-enoic acid]: over 100 µM and 2 fold.
The matching figures for `O=C(O)/C=C(\CCc1ccc2ccccc2c1)c1ccccc1` [PS 138, (E)-5-(2-Naphthalenyl)-3-phenylpent-2-enoic acid]: 27.1 µM and 3.1 fold.
Regarding `O=C(O)/C=C(\CCc1ccc(C(F)(F)F)cc1)c1ccccc1` [PS 140, (E)-3-Phenyl-5-[4-(trifluoromethyl)phenyl]pent-2-enoic acid], the “AC50 PDK1 (μM)” value is “n.e” and the “max. activation of PDK1 (fold)” value is “n.e”.
Turning to `O=C(O)/C=C(\CCc1c[nH]c2ccccc12)c1ccccc1` [PS 158, (E)-5-(1H-Indol-3-yl)-3-phenylpent-2-enoic acid], the AC50 was found to be 34.6 µM and the “max. activation of PDK1 (fold)” value amounted to 2.9 fold.
The matching figures for `O=C(O)/C=C(/CCc1c[nH]c2ccccc12)c1ccccc1` [PS 159, (Z)-5-(1H-Indol-3-yl)-3-phenylpent-2-enoic acid]: 9.3 µM and 3.7 fold.
Turning to `O=C(O)/C=C(/CCc1ccc(F)cc1)c1ccccc1` [PS-T3, (Z)-5-(4-Fluorophenyl)-3-phenylpent-2-enoic acid], the AC50 worked out at 41 µM and the “max. activation of PDK1 (fold)” value was 3.3 fold.
As to `O=C(O)/C=C(/CCc1ccc2ccccc2c1)c1ccccc1` [PS-T4, (Z)-5-(2-Naphthalenyl)-3-phenylpent-2-enoic acid], the AC50 was found to be 4 µM and the “max. activation of PDK1 (fold)” value is “more than 4 fold”. Besides, the “max. activation of PDK1 (fold)” value (listed as T4) turned out to be 4.2 fold.
As to `O=C(O)/C=C(/CCc1ccc(Cl)c(Cl)c1)c1ccccc1` [PS-T7, (Z)-5-(3,4-Dichlorophenyl)-3-phenylpent-2-enoic acid], half-maximal activity (AC50) was put at 8 µM and the “max. activation of PDK1 (fold)” value was 3.4 fold.
Regarding `O=C(O)/C=C(/CCc1ccc(Cl)cc1Cl)c1ccccc1` [PS-T9, (Z)-5-(2,4-Dichlorophenyl)-3-phenylpent-2-enoic acid], the AC50 was found to be 9.4 µM and the “max. activation of PDK1 (fold)” value amounted to 2.2 fold.
